Results as given in patent US11932628B2, “Selective small molecule peptidomimetic melanocortin ligands” (REGENTS OF THE UNIVERSITY OF MINNESOTA, priority 2021, dated 2024).

Columns and labels:
[1] = target: mMC5R (Mus musculus, UniProt P41149); assay: cAMP based functional bioassay (CRE/β-galactosidase reporter), agonist activity at mMC5R
Procedure: (§1) The compounds were evaluated using a whole cell assay.
(§2) Compounds were dissolved in DMSO at a stock concentration of 10^−2 M and stored at −20° C. until assayed. HEK-293 cells stably expressing the selected melanocortin receptors were transiently transfected with 4 μg of CRE/β-galactosidase reporter gene. Briefly, 5000-15000 post transfection cells were plated into collagen treated 96-well plates (Nunc) and incubated overnight. […] The assay media was aspirated, and 50 μL of lysis buffer (250 mM Tris-HCl pH=8.0 and 0.1% Triton X-100) was added. The plates were stored at −80° C. overnight. The plates containing the cell lysates were thawed the following day. Aliquots of 10 μL were taken from each well and transferred to another 96-well plate for relative protein determination. To the cell lysate plates, 40 μL of phosphate-buffered saline with 0.5% BSA was added to each well. Subsequently, 150 μL of substrate buffer (60 mM sodium phosphate, 1 mM MgCl2, 10 mM KCl, 5 mM β-mercaptoethanol, 2 mg/mL ONPG) was added to each well and the plates were incubated at 37° C. The sample absorbance, OD405, was measured using a 96-well plate reader (Molecular Devices). The relative protein was determined by adding 200 μL of 1:5 dilution BioRad G250 protein dye:water to the 10 μL of cell lysate sample taken previously, and the OD595 was measured on a 96-well plate reader (Molecular Devices). Data points were normalized to forskolin and the relative protein content were used as positive controls. The EC50 values represent the mean of three or more independent experiments. The EC50 estimates, and their associated standard errors of the mean, were determined by fitting the data to a nonlinear least-squares analysis using the PRISM program (v4.0, GraphPad Inc.).
(§3) The results are tabulated in the form of EC50 values. In the case where the particular receptor was not activated to full activity at 100,000 nM, then the relative activity was reported.

[2] = target: T1, mMC4R (Mus musculus, UniProt P56450); assay: cAMP based functional bioassay (CRE/β-galactosidase reporter), agonist activity at mMC4R; parameters: Emax: dose or concentration left out as unconfirmed; conditions: for mMC4R Activity @ 10 μM (relative activity, percent) / mMC4R Activity @ 10 μM (class): reported where receptor not activated to full activity; for Emax: read-out: maximal activation at the melanocortin-4 receptor
Procedure: as §1, §2, §3

[3] = target: mMC1R (Mus musculus, UniProt Q01727); assay: cAMP based functional bioassay (CRE/β-galactosidase reporter), agonist activity at mMC1R; conditions: for mMC1R Activity @ 10 μM (class) / mMC1R Activity @ 10 μM (relative activity, percent): reported where receptor not activated to full activity
Procedure: as §1, §2, §3

[4] = target: mMC3R (Mus musculus, UniProt P33033); assay: cAMP based functional bioassay (CRE/β-galactosidase reporter), agonist activity at mMC3R
Procedure: as §1, §2, §3

[5] = target: T1, mMC4R; assay: Schild analysis of antagonist activity at mMC4R; conditions: for mMC4R Antagonist pA2: Schild analysis
Procedure: The antagonist activity may also be reported as a Ki value, which is the inverse Log of pA2. […] Compounds were dissolved in DMSO at a stock concentration of 10^−2 M and stored at −20° C. until assayed. HEK-293 cells stably expressing the selected melanocortin receptors were transiently transfected with 4 μg of CRE/β-galactosidase reporter gene. Briefly, 5000-15000 post transfection cells were plated into collagen treated 96-well plates (Nunc) and incubated overnight. […] The assay media was aspirated, and 50 μL of lysis buffer (250 mM Tris-HCl pH=8.0 and 0.1% Triton X-100) was added. The plates were stored at −80° C. overnight. The plates containing the cell lysates were thawed the following day. Aliquots of 10 μL were taken from each well and transferred to another 96-well plate for relative protein determination. To the cell lysate plates, 40 μL of phosphate-buffered saline with 0.5% BSA was added to each well. Subsequently, 150 μL of substrate buffer (60 mM sodium phosphate, 1 mM MgCl2, 10 mM KCl, 5 mM β-mercaptoethanol, 2 mg/mL ONPG) was added to each well and the plates were incubated at 37° C. The sample absorbance, OD405, was measured using a 96-well plate reader (Molecular Devices). The relative protein was determined by adding 200 μL of 1:5 dilution BioRad G250 protein dye:water to the 10 μL of cell lysate sample taken previously, and the OD595 was measured on a 96-well plate reader (Molecular Devices). Data points were normalized to forskolin and the relative protein content were used as positive controls. The EC50 values represent the mean of three or more independent experiments. The EC50 estimates, and their associated standard errors of the mean, were determined by fitting the data to a nonlinear least-squares analysis using the PRISM program (v4.0, GraphPad Inc.).
The reported values are on a log scale. In order to put them into perspective, their approximate binding disassociation constants, Ki values, can be calculated through the following relationship pA2=−Log10 (Ki).

[6] = reported where receptor not activated to full activity

Sequence of mMC3R (P33033 whole entry): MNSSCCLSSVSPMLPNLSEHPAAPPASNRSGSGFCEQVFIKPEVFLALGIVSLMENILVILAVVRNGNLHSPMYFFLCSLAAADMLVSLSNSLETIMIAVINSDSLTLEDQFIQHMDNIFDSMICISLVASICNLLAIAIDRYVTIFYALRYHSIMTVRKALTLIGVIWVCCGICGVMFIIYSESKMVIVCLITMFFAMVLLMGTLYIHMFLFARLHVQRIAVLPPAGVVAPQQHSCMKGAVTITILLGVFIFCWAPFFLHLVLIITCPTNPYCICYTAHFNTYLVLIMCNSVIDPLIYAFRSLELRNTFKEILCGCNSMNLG
Sequence of mMC5R (P41149 whole entry): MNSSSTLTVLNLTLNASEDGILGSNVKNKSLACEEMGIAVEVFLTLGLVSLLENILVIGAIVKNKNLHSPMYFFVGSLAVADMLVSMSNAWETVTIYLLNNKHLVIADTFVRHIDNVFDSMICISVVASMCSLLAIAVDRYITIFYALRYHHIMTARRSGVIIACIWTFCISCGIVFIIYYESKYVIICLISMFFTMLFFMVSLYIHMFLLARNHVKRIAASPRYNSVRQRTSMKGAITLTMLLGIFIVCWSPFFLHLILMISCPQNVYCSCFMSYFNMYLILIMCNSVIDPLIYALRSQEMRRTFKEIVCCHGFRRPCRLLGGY
T1 sequence (P56450 whole entry): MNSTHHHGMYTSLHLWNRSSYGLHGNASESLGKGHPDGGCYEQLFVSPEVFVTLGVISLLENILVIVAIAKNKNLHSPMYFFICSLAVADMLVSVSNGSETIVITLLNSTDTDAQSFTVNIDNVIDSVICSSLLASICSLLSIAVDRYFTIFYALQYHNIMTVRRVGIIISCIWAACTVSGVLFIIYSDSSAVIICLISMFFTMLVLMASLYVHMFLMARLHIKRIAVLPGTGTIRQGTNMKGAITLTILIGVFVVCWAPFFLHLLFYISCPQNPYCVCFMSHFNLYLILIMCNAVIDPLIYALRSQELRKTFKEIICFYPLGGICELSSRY
Sequence of mMC1R (Q01727 whole entry): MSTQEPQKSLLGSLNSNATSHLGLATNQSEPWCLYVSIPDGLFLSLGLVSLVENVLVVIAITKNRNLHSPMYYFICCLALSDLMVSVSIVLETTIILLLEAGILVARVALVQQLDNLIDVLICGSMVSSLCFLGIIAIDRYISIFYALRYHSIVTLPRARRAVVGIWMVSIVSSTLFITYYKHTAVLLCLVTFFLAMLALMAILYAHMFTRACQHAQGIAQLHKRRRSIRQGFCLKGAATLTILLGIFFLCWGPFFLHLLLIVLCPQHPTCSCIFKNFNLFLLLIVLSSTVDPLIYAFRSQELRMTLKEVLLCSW

Structure (SMILES): CC(C)C[C@@H]1CNC(=N)N1C[C@@H]1CCCN1C[C@@H](CC1CCCCC1)N1C[C@@H]([C@@H](C)O)N(CC23CC4CC(CC(C4)C2)C3)C1=N [TPI 2509-4, (R)-1-((S)-3-(adamantan-1-ylmethyl)-1-((R)-1-cyclohexyl-3-((S)-2-(((R)-2-imino-5-isobutylimidazolidin-1-yl)methyl)pyrrolidin-1-yl)propan-2-yl)-2-iminoimidazolidin-4-yl)ethanol]
- EC50 [1]: 340 ± 140 nM
- mMC4R Activity @ 10 μM (relative activity, percent) [2]: 55%
- EC50 [3]: 330 ± 110 nM
- EC50 [4]: 240 ± 40 nM
- Kb [5]: 3160 nM

Structure (SMILES): CC(C)C[C@@H]1CNC(=N)N1C[C@@H]1CCCN1C[C@@H](CC1CCCCC1)N1C[C@@H]([C@@H](C)O)N(CC2CCC(C(C)(C)C)CC2)C1=N (stereo partly drawn) [TPI 2509-5, (R)-1-((S)-3-((4-(tert-butyl)cyclohexyl)methyl)-1-((R)-1-cyclohexyl-3-((S)-2-(((R)-2-imino-5-isobutylimidazolidin-1-yl)methyl)pyrrolidin-1-yl)propan-2-yl)-2-iminoimidazolidin-4-yl)ethanol]
- EC50 [1]: 140 ± 70 nM
- mMC4R Activity @ 10 μM (relative activity, percent) [2]: 45%
- EC50 [3]: 300 ± 90 nM
- EC50 [4]: 210 ± 50 nM
- Kb [5]: 1580 nM

Structure (SMILES): CC(C)C[C@@H]1CNC(=N)N1C[C@@H]1CCCN1C[C@@H](Cc1ccccc1)N1C[C@@H]([C@@H](C)O)N(CC23CC4CC(CC(C4)C2)C3)C1=N [TPI 2509-13, (R)-1-((S)-3-(adamantan-1-ylmethyl)-2-imino-1-((R)-1-((S)-2-(((R)-2-imino-5-isobutylimidazolidin-1-yl)methyl)pyrrolidin-1-yl)-3-phenylpropan-2-yl)imidazolidin-4-yl)ethanol]
- EC50 [1]: 810 ± 280 nM
- mMC4R Activity @ 10 μM (class) [2]: B (B: >51%)
- mMC4R Activity @ 10 μM (relative activity, percent) [2]: 58%
- mMC1R Activity @ 10 μM (class) [3]: B (B: >51%)
- mMC1R Activity @ 10 μM (relative activity, percent) [3]: 41%
- EC50 [4]: 360 ± 40 nM
- Kb [5]: 2510 nM

Structure (SMILES): CC(C)C[C@@H]1CNC(=N)N1C[C@@H]1CCCN1C[C@@H](Cc1ccccc1)N1C[C@@H]([C@@H](C)O)N(CC2CCC(C(C)(C)C)CC2)C1=N (stereo partly drawn) [TPI 2509-14, (R)-1-((S)-3-((4-(tert-butyl)cyclohexyl)methyl)-2-imino-1-((R)-1-((S)-2-(((R)-2-imino-5-isobutylimidazolidin-1-yl)methyl)pyrrolidin-1-yl)-3-phenylpropan-2-yl)imidazolidin-4-yl)ethanol]
- EC50 [1]: 530 ± 50 nM
- Emax [2]: > 20%
- mMC4R Activity @ 10 μM (class) [2]: A (A: <50%)
- mMC1R Activity @ 10 μM (class) [3]: B (B: >51%)
- mMC1R Activity @ 10 μM (relative activity, percent) [3]: 58%
- EC50 [4]: 310 ± 60 nM
- EC50 values at the melanocortin-3 receptor (in words) [4]: nanomolar
- Kb [5]: 100 nM
- Ki [5]: 100 nM
- mMC4R Antagonist pA2 [5]: 7.0±0.7

Structure (SMILES): CC(C)[C@@H]1CNC(=N)N1C[C@@H]1CCCN1C[C@@H](CC1CCCCC1)N1C[C@@H]([C@@H](C)O)N(CC23CC4CC(CC(C4)C2)C3)C1=N [TPI 2509-22, (R)-1-((S)-3-(adamantan-1-ylmethyl)-1-((R)-1-cyclohexyl-3-((S)-2-(((R)-2-imino-5-isopropylimidazolidin-1-yl)methyl)pyrrolidin-1-yl)propan-2-yl)-2-iminoimidazolidin-4-yl)ethanol]
- EC50 [1]: 600 ± 210 nM
- mMC4R Activity @ 10 μM (class) [2]: A (A: <50%)
- mMC4R Activity @ 10 μM (relative activity, percent) [2]: 49%
- EC50 [3]: 200 ± 80 nM
- EC50 [4]: 370 ± 90 nM
- Kb [5]: 1580 nM

Structure (SMILES): CC(C)[C@@H]1CNC(=N)N1C[C@@H]1CCCN1C[C@@H](CC1CCCCC1)N1C[C@@H]([C@@H](C)O)N(CC2CCC(C(C)(C)C)CC2)C1=N (stereo partly drawn) [TPI 2509-23, (R)-1-((S)-3-((4-(tert-butyl)cyclohexyl)methyl)-1-((R)-1-cyclohexyl-3-((S)-2-(((R)-2-imino-5-isopropylimidazolidin-1-yl)methyl)pyrrolidin-1-yl)propan-2-yl)-2-iminoimidazolidin-4-yl)ethanol]
- EC50 [1]: 150 ± 20 nM
- mMC4R Activity @ 10 μM (class) [2]: A (A: <50%)
- mMC4R Activity @ 10 μM (relative activity, percent) [2]: 41%
- EC50 [3]: 300 ± 120 nM
- EC50 [4]: 220 ± 30 nM
- Kb [5]: 1260 nM

Structure (SMILES): CCC[C@@H]1CN([C@H](CC2CCCCC2)CN2CCC[C@H]2CN2C(=N)NC[C@H]2C(C)C)C(=N)N1CC1CCC(C(C)(C)C)CC1 (stereo partly drawn) [TPI 2509-26, (R)-3-((4-(tert-butyl)cyclohexyl)methyl)-1-((R)-1-cyclohexyl-3-((S)-2-(((R)-2-imino-5-isopropylimidazolidin-1-yl)methyl)pyrrolidin-1-yl)propan-2-yl)-4-propylimidazolidin-2-imine]
- EC50 [1]: 540 ± 50 nM
- mMC4R Activity @ 10 μM (class) [2]: A (A: <50%)
- mMC4R Activity @ 10 μM (relative activity, percent) [2]: 50%
- mMC1R Activity @ 10 μM (class) [3]: B (B: >51%)
- EC50 [4]: 350 ± 20 nM
- Kb [5]: 1580 nM

Structure (SMILES): CC(C)[C@@H]1CNC(=N)N1C[C@@H]1CCCN1C[C@@H](CC1CCCCC1)N1C[C@@H](C(C)C)N(CC2CCC(C(C)(C)C)CC2)C1=N (stereo partly drawn) [TPI 2509-29, (R)-3-((4-(tert-butyl)cyclohexyl)methyl)-1-((R)-1-cyclohexyl-3-((S)-2-(((R)-2-imino-5-isopropylimidazolidin-1-yl)methyl)pyrrolidin-1-yl)propan-2-yl)-4-isopropylimidazolidin-2-imine]
- EC50 [1]: 510 ± 50 nM
- mMC4R Activity @ 10 μM (class) [2]: A (A: <50%)
- mMC4R Activity @ 10 μM (relative activity, percent) [2]: 28%
- EC50 [3]: 290 ± 20 nM
- EC50 [4]: 4300 ± 3300 nM

Structure (SMILES): CC(C)CCCN1C(=N)N([C@H](CC2CCCCC2)CN2CCC[C@H]2CN2C(=N)NC[C@H]2C(C)C)C[C@H]1C(C)C [TPI 2509-30, (R)-1-((R)-1-cyclohexyl-3-((S)-2-(((R)-2-imino-5-isopropylimidazolidin-1-yl)methyl)pyrrolidin-1-yl)propan-2-yl)-4-isopropyl-3-(4-methylpentyl)imidazolidin-2-imine]
- EC50 [1]: 1700 ± 520 nM
- mMC4R Activity @ 10 μM (class) [2]: B (B: >51%)
- EC50 [3]: 6100 nM
- mMC3R Activity @ 10 μM (class) [4, 6]: B (B: >51%)

Structure (SMILES): CC(C)[C@@H]1CNC(=N)N1C[C@@H]1CCCN1C[C@@H](Cc1ccccc1)N1C[C@@H]([C@@H](C)O)N(CC23CC4CC(CC(C4)C2)C3)C1=N [TPI 2509-31, (R)-1-((S)-3-(adamantan-1-ylmethyl)-2-imino-1-((R)-1-((S)-2-(((R)-2-imino-5-isopropylimidazolidin-1-yl)methyl)pyrrolidin-1-yl)-3-phenylpropan-2-yl)imidazolidin-4-yl)ethanol]
- EC50 [1]: 180 ± 90 nM
- mMC4R Activity @ 10 μM (relative activity, percent) [2]: 50%
- EC50 [3]: 440 ± 140 nM
- EC50 [4]: 360 ± 10 nM
- Kb [5]: 1580 nM

Structure (SMILES): CC(C)[C@@H]1CNC(=N)N1C[C@@H]1CCCN1C[C@@H](Cc1ccccc1)N1C[C@@H]([C@@H](C)O)N(CC2CCC(C(C)(C)C)CC2)C1=N (stereo partly drawn) [TPI 2509-32, (R)-1-((S)-3-((4-(tert-butyl)cyclohexyl)methyl)-2-imino-1-((R)-1-((S)-2-(((R)-2-imino-5-isopropylimidazolidin-1-yl)methyl)pyrrolidin-1-yl)-3-phenylpropan-2-yl)imidazolidin-4-yl)ethanol]
- EC50 [1]: 490 ± 155 nM
- Emax [2]: > 20%
- mMC4R Activity @ 10 μM (class) [2]: A (A: <50%)
- EC50 [3]: 600 ± 340 nM
- EC50 [4]: 420 ± 120 nM
- EC50 values at the melanocortin-3 receptor (in words) [4]: nanomolar
- Kb [5]: 316 nM
- Ki [5]: 320 nM
- mMC4R Antagonist pA2 [5]: 6.5±0.5

Structure (SMILES): CCC[C@@H]1CN([C@H](Cc2ccccc2)CN2CCC[C@H]2CN2C(=N)NC[C@H]2C(C)C)C(=N)N1CC12CC3CC(CC(C3)C1)C2 [TPI 2509-34, (R)-3-(adamantan-1-ylmethyl)-1-((R)-1-((S)-2-(((R)-2-imino-5-isopropylimidazolidin-1-yl)methyl)pyrrolidin-1-yl)-3-phenylpropan-2-yl)-4-propylimidazolidin-2-imine]
- EC50 [1]: 6600 ± 5740 nM
- EC50 [2]: 1400 ± 760 nM
- EC50 [3]: 6700 ± 4700 nM
- EC50 [4]: 2000 ± 850 nM

Structure (SMILES): CCC[C@@H]1CN([C@H](Cc2ccccc2)CN2CCC[C@H]2CN2C(=N)NC[C@H]2C(C)C)C(=N)N1CC1CCC(C(C)(C)C)CC1 (stereo partly drawn) [TPI 2509-35, (R)-3-((4-(tert-butyl)cyclohexyl)methyl)-1-((R)-1-((S)-2-(((R)-2-imino-5-isopropylimidazolidin-1-yl)methyl)pyrrolidin-1-yl)-3-phenylpropan-2-yl)-4-propylimidazolidin-2-imine]
- EC50 [1]: 940 ± 340 nM
- mMC4R Activity @ 10 μM (class) [2]: A (A: <50%)
- mMC4R Activity @ 10 μM (relative activity, percent) [2]: 27%
- EC50 [3]: 2300 ± 1000 nM
- EC50 [4]: 6200 ± 5400 nM

Structure (SMILES): CC(C)[C@@H]1CNC(=N)N1C[C@@H]1CCCN1C[C@@H](Cc1ccccc1)N1C[C@@H](C(C)C)N(CC23CC4CC(CC(C4)C2)C3)C1=N [TPI 2509-37, (R)-3-(adamantan-1-ylmethyl)-1-((R)-1-((S)-2-(((R)-2-imino-5-isopropylimidazolidin-1-yl)methyl)pyrrolidin-1-yl)-3-phenylpropan-2-yl)-4-isopropylimidazolidin-2-imine]
- EC50 [1]: 660 ± 130 nM
- mMC4R Activity @ 10 μM (class) [2]: B (B: >51%)
- mMC4R Activity @ 10 μM (relative activity, percent) [2]: 54%
- EC50 [3]: 47800 ± 23100 nM
- EC50 [4]: 4000 ± 1900 nM

Structure (SMILES): CC[C@H](C)[C@@H]1CNC(=N)N1C[C@@H]1CCCN1C[C@@H](Cc1ccccc1)N1CC(Cc2ccc(O)cc2)N(CC2CCC(C(C)(C)C)CC2)C1=N (stereo partly drawn) [TPI 2509-40, 4-((1-((R)-1-((S)-2-(((R)-5-((S)-sec-butyl)-2-iminoimidazolidin-1-yl)methyl)pyrrolidin-1-yl)-3-phenylpropan-2-yl)-3-((4-(tert-butyl)cyclohexyl)methyl)-2-iminoimidazolidin-4-yl)methyl)phenol]
- EC50 [1]: 380 ± 50 nM
- mMC4R Activity @ 10 μM (class) [2]: A (A: <50%)
- mMC4R Activity @ 10 μM (relative activity, percent) [2]: 23%
- EC50 [3]: 290 ± 20 nM
- mMC3R Activity @ 10 μM (class) [4, 6]: B (B: >51%)
- mMC3R Activity @ 10 μM (relative activity, percent) [4, 6]: 65%
